Reference: BindingDB's records for doi:10.1016/S0960-894X(00)80308-X (1993)

Target: Human immunodeficiency virus type 1 protease (Human immunodeficiency virus 1, UniProt Q72874)
Assay: ChEBML_159632
Description: Inhibitory concentration required to inhibit HIV-1 protease was determined

Row | Ki | SMILES
1 | 30 µM | CC(C)(C)OC(=O)N[C@H](C(=O)C(=C=N)c1ccc([N+](=O)[O-])cc1)C(=O)C(N)c1ccccc1 (some centres not stated)
2 | 30 µM | N=C=C(C(=O)[C@H](Cc1ccccc1)NC(=O)OCc1ccccc1)c1ccc([N+](=O)[O-])cc1
